Data: the supplement of paper PMC10883282

Legend:
Test in all cases: relative viability vs DMSO control (72 h) (fraction); higher = more viable cells
[1] = tested on: HS729
Procedure, shortened: (§1)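 Densities for seeding sarcoma cell lines into 384-well plates were set to give 80–90% confluence. After 24 h, 2.5 µl of serially diluted compound from source plates of 10 mM to 0.0002 mM went in, and plates stayed 72 h at 37 °C in 5% CO2 with 0.1% DMSO vehicle and a 5 µM positive control. Percent growth from ATPLite readings, averaged over up to triplicate wells, served as relative viability, rescaled so 1 means full and 0 means none.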

[2] = tested on: KHOS-240S
Procedure, shortened: as §1

[3] = tested on: A204
Procedure, shortened: as §1

[4] = tested on: SYO-1
Procedure, shortened: as §1

[5] = tested on: SW982
Procedure, shortened: as §1

C#Cc1cccc(Nc2ncnc3cc(OCCOC)c(OCCOC)cc23)c1 [Erlotinib]
relative viability
Conditions	[1]	[2]	[3]	[4]	[5]
0.00017 µM	1.03	1.06	1.06	0.999	1.06
0.00051 µM	0.978	1.07	1.13	0.998	1.06
0.00152 µM	0.976	1.05	1.09	0.978	1.08
0.00457 µM	0.961	1.08	1.09	0.979	1.08
0.01372 µM	1.01	1.06	1.07	0.982	1.06
0.04115 µM	1	1.07	1.1	0.9892	1.08
0.1235 µM	0.995	1.087	1.09	0.967	1.07
0.3704 µM	1.01	1.08	1.09	0.991	1.07
1.111 µM	0.92	1.062	1.01	0.962	0.9728
3.333 µM	0.781	1.06	0.822	0.92	0.689
10 µM	0.714	0.949	0.546	0.724	0.466

Cc1ccc(NC(=O)c2ccc(CN3CCN(C)CC3)cc2)cc1Nc1nccc(-c2cccnc2)n1 [Imatinib]
relative viability
Conditions	[1]	[2]	[3]	[4]	[5]
0.00017 µM	0.972	0.98	1.01	0.98	0.985
0.00051 µM	0.996	0.977	1.01	0.974	0.972
0.00152 µM	1.02	0.9747	0.993	0.965	0.973
0.00457 µM	0.991	0.98	0.99	0.964	0.975
0.01372 µM	0.977	0.97	0.95	0.948	0.97
0.04115 µM	0.985	0.971	0.87	0.907	0.98
0.1235 µM	0.993	0.953	0.738	0.804	0.963
0.3704 µM	0.945	0.929	0.491	0.744	0.979
1.111 µM	0.917	0.895	0.389	0.704	0.983
3.333 µM	0.86	0.794	0.312	0.63	0.96
10 µM	0.522	0.542	0.196	0.155	0.531

N#CCC1(n2cc(-c3ncnc4[nH]ccc34)cn2)CN(C2CCN(C(=O)c3ccnc(C(F)(F)F)c3F)CC2)C1 [Itacitinib]
relative viability
Conditions	[1]	[2]	[3]	[4]	[5]
0.00017 µM	1	1.05	1.02	0.969	0.979
0.00051 µM	0.966	1.04	1.02	0.921	0.996
0.00152 µM	0.937	1.04	1.03	0.927	1.01
0.00457 µM	0.889	1.06	1.02	0.91	1
0.01372 µM	0.833	1.02	1.04	0.859	1.02
0.04115 µM	0.885	1.01	1.03	0.825	0.974
0.1235 µM	0.792	0.984	1.01	0.802	0.976
0.3704 µM	0.822	0.999	0.959	0.792	0.956
1.111 µM	0.806	0.97	0.948	0.752	0.983
3.333 µM	0.758	0.95	0.936	0.72	0.93
10 µM	0.751	0.923	0.836	0.698	0.928

N#Cc1ccnc(N2C(=O)CC[C@H]2C(=O)N(c2cncc(F)c2)[C@H](C(=O)NC2CC(F)(F)C2)c2ccccc2Cl)c1 [Ivosidenib]
relative viability
Conditions	[1]	[2]	[3]	[4]	[5]
0.00017 µM	0.966	1.03	1.07	1.03	1.02
0.00051 µM	1	1.04	1.03	1.01	0.981
0.00152 µM	1.01	1.04	1.11	1.07	0.987
0.00457 µM	1.01	1.057	1.06	1.02	1
0.01372 µM	0.998	1.04	1.04	1.01	0.996
0.04115 µM	0.993	1.046	1.03	1.01	1.01
0.1235 µM	1.01	1.02	1.05	1.02	0.984
0.3704 µM	1	1.03	1.015	1.01	0.966
1.111 µM	0.982	1.02	1.06	1.02	0.975
3.333 µM	0.949	1.022	1.03	1.01	0.982
10 µM	0.96	0.998	0.971	1	0.971

COc1cc2nccc(Oc3ccc(NC(=O)NC4CC4)c(Cl)c3)c2cc1C(N)=O [Lenvatinib]
relative viability
Conditions	[1]	[2]	[3]	[4]	[5]
0.00017 µM	1.01	0.992	1	1.07	1
0.00051 µM	1.07	1	1.04	1.02	0.993
0.00152 µM	1.04	1.03	1.03	1.02	0.998
0.00457 µM	1.04	1.01	1.02	0.9627	0.9857
0.01372 µM	1.016	0.977	0.79	0.864	0.989
0.04115 µM	1.014	0.938	0.551	0.721	0.99
0.1235 µM	0.945	0.913	0.406	0.606	0.982
0.3704 µM	0.833	0.824	0.345	0.504	0.968
1.111 µM	0.702	0.738	0.267	0.472	0.947
3.333 µM	0.621	0.72	0.186	0.459	0.926
10 µM	0.542	0.6606	0.167	0.432	0.8573
